Reference: patent US9023817B2, “Use of albiflorin for anti-depression” (priority 2009, dated 2015)

What was measured:
ICR mice [1] = assay: Forced swimming test in mice; assay type: in vivo; conditions: 3.5 mg/kg/d by gavage for two days; 1 h after administration; last 4 min
Protocol: Each group was administered by gavage at a dose of 0.2 ml/10 g weight, for two days, deionized water was administered to vehicle group.
In the second day, 1 h after the administration, the mice were placed separately into a water cylinder with 20 cm of height, 18 cm of diameter, 10 cm of depth, 23±2° C. of water temperature; observing each for 6 min, after 2 min of adaption, the immobility time over the last 4 min was recorded.
The data was expressed as x±s, analyzed by SPSS 13.0 statistical software by means of One-Way ANOVA test, the homogeneity of variance was tested by LSD and SNK test.

[2] = tested on: serotonin in the brain of rat; assay: Serotonin in the brain of rat with chronic stress (HPLC-ECD, prefrontal cortex); assay type: in vivo, SD rats; conditions: 3.5 mg/kg/d gavage for 21 days
Protocol: (§1) After being fed without water for 24 hours, SD rats were administered with 1% aqueous sucrose, the consumption of aqueous sucrose was measured for 1 hour. The rats were randomly divided into six groups (n=12 for each group) according to the consumptions of aqueous sucrose, i.e. vehicle group, model group, positive control group of Fluoroxetine Hydrochloride (2.5 mg/kg/d), high-dose group (14 mg/kg/day), medium-dose group (7 mg/kg/day), and low-dose group (3.5 mg/kg/day) of Albiflorin. The gavage was carried out along with the model establishment, once a day, for 21 days. Each group was administered at a dose of 1.0 ml/100 g weight, and weighed once a week.
(§2) The rats were fed at 6/cage as vehicle group, with normal diets and drinking water, and without any stimulation.
(§3) The rats were fed at 1/cage as the other five groups, and subjected to unpredicted stress stimulations for 21 days, including: swimming in ice water, drying, tail nipping, wet feeding, reversed day and night, fasting, water deprivation and the like. One kind of stimulations was randomly given for each day.
(§4) The animal was executed by decapitation, the brain of it was quickly stripped on the ice, the prefrontal cortex was taken out, then placed into frozen tissue tube after weighting, rapidly frozen with liquid nitrogen, and placed into the refrigerator at −70° C. until test.

[3] = tested on: noradrenalin in the brain of rat; assay: Noradrenalin in the brain of rat with chronic stress (HPLC-ECD, prefrontal cortex); assay type: in vivo, SD rats; conditions: 3.5 mg/kg/d gavage for 21 days
Protocol: as §1, §2, §3, §4

ICR mice [4] = assay: Tail suspension test in mice, intraperitoneal injection; assay type: in vivo; conditions: 7 mg/kg intraperitoneal injection, 1 day; 30 min after administration
Protocol: Normal mice were randomly divided into three groups (n=20 for each group) according to their weights, i.e. model group, high-dose group (14 mg/kg) and medium-dose group (7 mg/kg) of Albiflorin. Intraperitoneal injection group was subjected to the administration for 1 day. Each group was administered at a dose of 0.2 ml/10 g weight.
The test of intraperitoneal injection group was performed at 30 min after the administration. The tail of mouse 2 cm away from the tip of the tail) was fixed to the connection line of 100 g tension transducer with adhesive plaster, and the mouse was hung upside down, with the head about 15 cm away from the experimental bench, two animals isolated from each other by a cardboard were simultaneously tested for each time. The transducer was connected into the Medlab bio-signals acquisition and processing system, after 2 mins of adaption, the result over 4 mins was recorded, and the immobility situation was converted into the time(s).
The experimental data was expressed as X±SD, and the analysis of variance for the experimental results was carried out by SPSS 11.5 statistical software (purchased from SPSS Inc., USA).

[5] = tested on: rats with chronic stress induced depression model; assay: Jump stair test, chronic stress induced depression; assay type: in vivo, SD rats; conditions: 3.5 mg/kg/day gavage for 21 days, 5 minutes
Protocol: The gavage was carried out along with the model establishment, once a day, for 21 days. […] Referring to the methods in the literature (Xu Jing, Li Xiaoqiu, Establishment and evaluation of the model of chronic stress induced depression, Chinese Journal of Behavioral Medical Science, 2003, 12(1): 14 16), the model was established (i.e., establishing animal model of anti-depression by means of CUMS): the foot electric shock (voltage: […] (5 minutes), drying at 45° C. (5 minutes), tail nipping (1 min), wet feeding (wet mat), reversed day and night (24 hours), fasting (24 hours), water deprivation (24 hours) were randomly scheduled within 21 days, one kind of stimulations was given for each day, except for the animals of vehicle group, the others were separately caged with free diet, at the room temperature of (24±1)° C., with the relative humidity of (60±10)%. […] A wooden platform (height: 5 cm, diameter: 8 cm) was placed into the box at the left back corner. Animals were placed into the response box to adapt to the environment for 3 minutes, and then the box was immediately electrified with […] alternating current, the normal response of the animal which suffered from electric shock was to jump onto the platform in order to avoid such harmful stimulation. Most animals were likely to jump down to the copper railings again or for several times, and then quickly jump back to the platform after suffering from the electric shock, being trained like this for 5 minutes, the times that the rats suffered from the electric shock were designated as error times. The test was carried out again after 24 hours, rats were placed on the platform and the box was charged, timing and recording the error times for 5 minutes. All parameters to be tested were expressed as Mean±SD (X±s), and tested by means of analysis of variance (ANOVA) in SPSS 12.0 software (purchased from SPSS Inc., USA), p<0.05 means that there was a significant difference.

ICR mice [6] = assay: Tail suspension test in mice, administration by gavage; assay type: in vivo; conditions: 3.5 mg/kg/d by gavage for two days; 1 h after administration; over 4 min
Protocol: In the second day, 1 h after the administration, the tail of mouse (2 cm away from the tip of the tail) was fixed to the connection line of 100 g tension transducer by adhesive plaster, and the mouse was hung upside down, with the head about 15 cm away from the experimental bench, two animals isolated from each other by a cardboard were simultaneously tested for each time. The transducer was connected to the Medlab bio-signals acquisition and processing system, after 2 min of adaption, the result over 4 min was recorded, and the immobility situation was converted into the time(s). The experimental data were expressed as X±SD, and the analysis of variance for the experimental results was carried out by SPSS 11.5 statistical software (purchased from SPSS Inc., USA).

ICR mice [7] = assay: Acute toxicity test of Albiflorin; assay type: in vivo
Protocol: SFP level ICR mice were administered with Albiflorin at a dose of 8.4 g/kg, the observation time was 14 days.
The nature and rate of breath, behaviors (especially whether there was any vomit-causing phenomenon), actions, color and tension of fur, abdominal shape, hardness of feces, body weight and the like were observed.

## C[C@]12C[C@@H](O)[C@@H]3C[C@@]1(O[C@@H]1O[C@H](CO)[C@@H](O)[C@H](O)[C@H]1O)[C@@]3(COC(=O)c1ccccc1)C(=O)O2 [Albiflorin]
ICR mice [1]
  Immobility Time: 44.85 ± 29.695 s
[2]
  5-HT: 188.43 ± 67.91
[3]
  NA: 174.59 ± 60.35
ICR mice [4]
  Immobility Time: 82.350 ± 52.5132 s
[5]
  Error times in training period: 2.25 ± 1.42
[5]; after 24 hours
  Error times in testing period: 2.08 ± 1.31
ICR mice [6]
  Immobility Time: 83.82 ± 35.099 s
ICR mice [7]; 8.4 g/kg body weight, mice, by gavage
  safe dosage as multiple of the clinical dosage: approximately 600 times
ICR mice [7]; 8.4 g/kg by gavage, Day 7 and Day 14
  body weight compared with the vehicle group: without significant difference
ICR mice [7]; 8.4 g/kg by gavage, observation for 14 days
  abnormal symptoms and death: neither any abnormal symptom nor any death was found
ICR mice [7]; mice, by gavage
  dosage at which still safe: 8.4 g/kg body weight
